Experimental data published in patent US20220119446A1, “BIOMARKERS AND TREATMENT OF NEURONAL INJURY AND NEURODEGENERATION” (Board of Supervisons of Louisiana State University and …, priority 2018, published 2022).
Entries after “also recorded” stand apart in the source; their conditions may differ. * marks the point of attachment. Boc = CC(C)(C)OC(=O)*

How the values were obtained:
Type in all cases: cell-based, human
FZD5 = assay: Western blot of FZD5 protein in hpRPE cells under UOS
Description: The pellet was re-suspended and denatured in 100 μl of 2× Laemmli sample buffer (Bio-Rad Laboratories) at 95° C. for 5 min. MCAo brain tissue and cell samples were homogenized using RIPA (Thermo Fisher Scientific) buffer supplemented with protease and phosphatase inhibitor cocktails (Sigma). The amount of 30 μg of total protein was loaded in NuPAGE® Novex® 4-12% Bis-Tris precast gels (Life Technologies Corporation) or Mini-PROTEAN TGX Stain free gels 4-15% and ran at constant 120V for 1 hour and 20 min or 250 V for 40 min respectively. Proteins were transferred to μm Nitrocellulose or LF-PVDF membrane using Bio-Rad Trans-Blot® Turbo™ System (Bio-Rad Laboratories). ECL™ Plex Fluorescent Rainbow Markers (GE Healthcare) were used as the ladder for protein's molecular weight. Membranes were blocked using 5% non-fat dry milk (Bio-Rad Laboratories) in TBS with 1% Tween® 20 (TBST-10X) for 1 hour and incubated overnight with primary antibodies. Anti-mouse or anti-rabbit secondary antibodies conjugated with Cy3 or Cy5 were used to visualize the protein of interest. Immunoblots were documented using LAS 4000 imaging system (GE Healthcare Life Sciences) or ChemiDoc MP Imaging System (BioRad Laboratories). A time course exposition was produced in each case to prevent quantification of saturated images. Densitometry data was obtained using ImageQuant™ TL software and XRS Blot Chemi Software (BioRad Laboratories).

β-catenin = assay: TOP Flash/FOP flash luciferase reporter in hpRPE cells; details: hpRPE cells undergoing UOS+/−NPD1
Description: We tested whether or not Wnt5a activates […] using TOP Flash/FOP flash reporter system in hpRPE cells undergoing UOS+/−NPD1 (FIG. 1g).
(§1) Except TOP/FOP flash, the Luciferase activity can be standardized using a construct expressing GFP constitutively under CMV virus promoter. To assess luciferase activity, cell lysates can be obtained using Passive Lysis Buffer (Promega, Madison, Wis.) and mixed with a luciferase assay reagent (Promegam Madison, Wis.). Chemiluminescence produced by luciferase and fluorescence from GFP can be detected using Appliscan 2.3. Data can be analyzed using SkanIt 2.3 (Thermo Fisher Scientific, Waltham, Mass.).
(§2) Except TOP/FOP flash, the Luciferase activity was standardized using a construct expressing GFP constitutively under CMV virus promoter. To assess luciferase activity, cell lysates were obtained using Passive Lysis Buffer (Promega) and mixed with a luciferase assay reagent (Promega). Chemiluminescence produced by luciferase and fluorescence from GFP was detected using Appliscan 2.3. Data were analyzed using SkanIt 2.3 (Thermo Fisher Scientific).

COX-2 promoter = COX-2 promoter luciferase reporter assay; details: for COX-2 promoter activity (luciferase): hRPE cells, +/− 100 nM and 200 nM NPD1
Description: as §1
A, Design of luciferase reporter assay performed with COX-2 promoter construct. UOS was induced by the addition of 10 ng/ml TNFα and 600 μM H2O2 in ARPE-19 cells. The concentrations of Wnt5a used was 50 ng/ml. Cells were co-transfected with the constructs driving the expression of luciferase and a plasmid that constitutively expressed green fluorescent protein for standardization. Luciferase activity is denoted in luciferase activity units (LUC) and standardized using GFP fluorescent (GFP). B, Wnt5a and IL-1β effect time course on COX-2 promoter activity. […] Luciferase activity (LUC) was measured in ARPE-19 cells in the presence of 50 ng/ml Wnt5a or 20 ng/ml IL1-β. […] Luciferase activity measured in cells incubated with 50 ng/ml Wnt5a in the presence or absence of 100 nM (+) and 200 nM (++) NPD1.

NF-κB/p65 = NF-κB/p65 luciferase reporter assay in hpRPE cells
Description: We asked if Wnt5a activates inflammatory signaling to enhance apoptosis mediated by UOS by assessing COX-2 promoter activation (FIG. 10). […] To compare Wnt5a effects with other cytokines that enhance COX-2 expression, Interleukin-1β (IL-1β) activity was measured. […] To determine if Wnt5a activates NF-κB, hpRPE were transfected with a construct that encompassed three p65 high-affinity binding sites in tandem, driving the expression of the luciferase reporter gene (FIG. 1G). […] To assess whether or not FDZ5 and ROR2 were involved in NF-κB activation by Wnt5a, cells were co-transfected with siRNAs targeting the two receptors (FIG. 11).
as §1, §2

[1] = hpRPE under UOS in the presence of Wnt5a 50 ng/ml, NPD1 100 or 200 nM, Pitstop2 25 μM

t-Boc-NH-Met-Asp-Gly-Cys-Glu-Leu-CO2H (Boc-MDGCEL-OH) [Box5]
FZD5 protein abundance (FZD5; Box5, even in the presence of Wnt5a 50 ng/ml): decreased FZD5 abundance by half of the level

CC/C=C\C[C@H](O)\C=C/C=C/C=C/[C@H](O)C/C=C\C/C=C\CCC(=O)O [NPD1, 10R,17S-dihydroxy-docosa-4Z,7Z,11E,13E,15Z,19Z-hexaenoic acid]
β-catenin activity (luciferase) (β-catenin): not significantly altered
COX-2 promoter activity (luciferase) (COX-2 promoter; 50 ng/ml Wnt5a): down by half; also recorded: prevents Wnt5a-induced activation of COX-2 promoter
NF-κB/p65 activation (luciferase) (NF-κB/p65; [1]): reduced luciferase activity; also recorded: affects its activation when Wnt5a is added
NF-κB activation in cells co-transfected with ROR2 and FZD5 siRNAs (NF-κB/p65; hpRPE under UOS, double knockdown): not affected
NF-κB/p65 activation (luciferase) (NF-κB/p65; hpRPE under UOS, no Wnt5a added): did not affect NF-κB/p65; also recorded: does not prevent activation of NF-κB triggered by UOS; also recorded: did not affect NFkB/p65
FZD5 protein abundance (FZD5; 100 nM NPD1, Wnt5a present): steep decrease in the receptor content
FZD5 protein abundance (FZD5; 100 nM NPD1, absence of Wnt5a): no differences in the FZD5 receptor were observed

B1: Wnt5a: Recombinant Human/Mouse Wnt-5a Protein, CHO-derived (Gln38-Lys380), R&D systems 645-WN (protein)
chain: QVVIEANSWWSLGMNNPVQMSEVYIIGAQPLCSQLAGLSQGQKKLCHLYQDHMQYIGEGAKTGIKECQYQFRHRRWNCSTVDNTSVFGRVMQIGSRETAFTYAVSAAGVVNAMSRACREGELSTCGCSRAARPKDLPRDWLWGGCGDNIDYGYRFAKEFVDARERERIHAKGSYESARILMNLHNNEAGRRTVYNLADVACKCHGVSGSCSLKTCWLQLADFRKVGDALKEKYDSAAAMRLNSRGKLVQVNSRFNSPTTQDLVYIDPSPDYCVRNESTGSLGTQGRLCNKTSEGMDGCELMCCGRGYDQFKTVQTERCHCKFHWCCYVKCKKCTEIVDQFVCK
β-catenin activity (luciferase) (β-catenin): did not affect β-catenin; also recorded: does not affect activation of β-catenin
time of peak COX-2 promoter activity after addition (COX-2 promoter; ARPE-19 cells, 50 ng/ml Wnt5a): 4 h
COX-2 promoter activation (luciferase) (COX-2 promoter; ARPE-19 cells, 50 ng/ml Wnt5a or 20 ng/ml IL1-β): induced COX-2 promoter activation
COX-2 promoter activity (luciferase) (COX-2 promoter; 50 ng/ml Wnt5a): increased COX-2 activation
NF-κB/p65 activation (luciferase) (NF-κB/p65; [1]): heightens NF-κB activation; also recorded: heightened NFkB activation
